Literature values as cited in patent US11096902B1, “Transdermal film formulations and methods of use” (King Abdulaziz University, priority 2021, dated 2021).

Settings: oral, with food

- reduction of systemic availability by concomitant intake of food: 25%
Structure (SMILES): CC(C)c1c(C(=O)Nc2ccccc2)c(-c2ccccc2)c(-c2ccc(F)cc2)n1CC[C@@H](O)C[C@@H](O)CC(=O)[O-].CC(C)c1c(C(=O)Nc2ccccc2)c(-c2ccccc2)c(-c2ccc(F)cc2)n1CC[C@@H](O)C[C@@H](O)CC(=O)[O-].[Ca+2] [ATC, Atorvastatin calcium]
